This is an account of results in patent US9980943B2, “Methods of treating muscular dystrophy” (BOARD OF REGENTS OF THE NEVADA SYSTEM OF HIGHER EDUCATION, …, priority 2013, dated 2018).

Read-outs that look alike come from different tables or passages of the source.

The assay has as its system α7 integrin (LacZ reporter in α7LacZ+/− myoblasts). As to the kind of experiment: qHTS of the LOPAC library and MLSMR (online screen, α7LacZ+/− myoblasts). Conditions: for activation at 0.307 µM / activation at 1.53 µM / activation at 7.66 µM / activation at 38.3 µM / Emax / EC50: Mus musculus, Myoblast; for activation at 0.307 µM: read-out: Activity at 0.307 uM [%] **; for activation at 1.53 µM: read-out: Activity at 1.530 uM [%] **; for activation at 7.66 µM: read-out: Activity at 7.660 uM [%] **; for activation at 38.3 µM: read-out: Activity at 38.30uM [%] **; for EC50: read-out: Fit LogAC50 (converted). Background: Quantitative high-throughput screening tests each substance at several concentrations.

Setting [1] is: 48 h, read-out: Fit Infinite Activity [%].

Regarding `O=C(NCCc1ccccc1)C1CCC(=O)N1C1CCCC1` (stereo not shown) [Compound 104], the EC50 is 10 µM. Moreover, for the setting “48 h”, the activation at 0.307 µM is -6.49%, the activation at 1.53 µM is -11.7%, the activation at 7.66 µM is 27.3% and the activation at 38.3 µM was found to be 127%. In addition, under setting [1], the Emax amounted to 128%. Further, the Emax (read-out: Max Response [%]) is 127%.

For `COc1cc(NC(=O)CN(C)S(=O)(=O)c2ccc3c(c2)CC(C)N3C(C)=O)cc(OC)c1OC` (stereo not shown) [Compound 145], the EC50 was 10 µM. For the same compound, for the setting “48 h”, the activation at 0.307 µM was determined as 0.302%, the activation at 1.53 µM was 0.181%, the activation at 7.66 µM is 15.7% and the activation at 38.3 µM is 70.5%. The Emax under setting [1] is 70.5%. The Emax (read-out: Max Response [%]) is 70.5%.

As for `CCCN1C2CCCC1CC(NC(=O)c1cccc([N+](=O)[O-])c1)C2` (stereo not shown) [Compound 164], the “Curve Description” value is given as “Partial”, the Score is 42 and the EC50 is 10 µM. Also, under “48 h”, the activation at 0.307 µM worked out at 1.16%, the activation at 1.53 µM amounted to 0.0123%, the activation at 7.66 µM came to 22% and the activation at 38.3 µM stood at 91.6%. Moreover, the Emax under setting [1] came out at 91.8%. Moreover, the Emax (read-out: Max Response [%]) amounted to 91.6%.

On to `Cn1ccc(C(=O)Nc2cccnc2Cl)n1` [Compound 140], for which the EC50 is 10 µM. Under “48 h”, the activation at 0.307 µM was -2.76%, the activation at 1.53 µM was -4.96%, the activation at 7.66 µM is 22.8% and the activation at 38.3 µM worked out at 76%. Under setting [1], the Emax came out at 77.9%. Also, the Emax (read-out: Max Response [%]) came to 76%.

Turning to `CC(/C=C(\O)c1ccccc1)=N\c1ccc(Br)c(Cl)c1` [Compound 130], under “48 h”, the activation at 0.307 µM amounted to 7.18%, the activation at 1.53 µM came out at 9.18%, the activation at 7.66 µM worked out at 26.1% and the activation at 38.3 µM stood at 127%. The Emax under setting [1] is 128%. The Emax (read-out: Max Response [%]) was 127%.

Take `CCCS(=O)(=O)N1CCCC(C(=O)c2cccc(Cl)c2)C1` (stereo not shown) [Compound 84]: the EC50 was 6.31 µM. Also, where the note is “48 h”, the activation at 0.307 µM was -5.29%, the activation at 1.53 µM was determined as 11%, the activation at 7.66 µM is 59.7% and the activation at 38.3 µM amounted to 102%. For the same compound, the Emax under setting [1] is 114%. Moreover, the Emax (read-out: Max Response [%]) came out at 102%.

`CCOC(=O)Cc1csc(NC(=S)NC(=O)c2cc(OC)c(OC)c(OC)c2)n1` [Compound 20]: the EC50 is 3.55 µM. For the setting “48 h”, the activation at 0.307 µM was -18.1%, the activation at 1.53 µM is -4.46%, the activation at 7.66 µM worked out at 69.3% and the activation at 38.3 µM was found to be 82.9%. Moreover, under setting [1], the Emax worked out at 83.9%.

Turning to `CC(OC(=O)c1cc(-c2cccnc2)nc2ccccc12)C(=O)Nc1ccc2ccccc2c1` (stereo not shown) [Compound 1], the EC50 was 1.12 µM. For the same compound, for the setting “48 h”, the activation at 0.307 µM is 0%, the activation at 1.53 µM stood at 143%, the activation at 7.66 µM amounted to 198% and the activation at 38.3 µM came to 191%. Besides, under setting [1], the Emax was 195%.

Take `O=C(N/N=C/c1cn[nH]c1-c1ccc(F)cc1)c1ccncc1` [Compound 128]: under “48 h”, the activation at 0.307 µM was found to be 17.3%, the activation at 1.53 µM was determined as 12.6%, the activation at 7.66 µM was determined as 22.6% and the activation at 38.3 µM is 152%. The Emax under setting [1] was 154%. Besides, for the setting “read-out: Max Response [%]”, the Emax is 152%.

Compound `NS(=O)(=O)c1ccc(NC(=O)Nc2ccc(Cl)cc2)cc1` [Compound 202] gave a Score of 42.

In the case of `CN(C)C1(C/N=C/c2cc(Cl)cc([N+](=O)[O-])c2O)CCCCC1` [Compound 101], the EC50 was 8.91 µM. In addition, for the setting “48 h”, the activation at 0.307 µM was -14.2%, the activation at 1.53 µM is -11.6%, the activation at 7.66 µM was 43.3% and the activation at 38.3 µM was found to be 104%. The Emax under setting [1] was 116%. Besides, the Emax (read-out: Max Response [%]) came out at 104%. The Score (Table 8 Compound data) is reported as 43.

Consider `O=C(O)CCCNC(=O)CCn1nnc2ccccc2c1=O` [Compound 174], for which, where the note is “48 h”, the activation at 0.307 µM is -21.7%, the activation at 1.53 µM is -16.7%, the activation at 7.66 µM is 13.6% and the activation at 38.3 µM worked out at 74.2%. Further, the Emax under setting [1] was determined as 83.7%. Where the note is “read-out: Max Response [%]”, the Emax was 74.2%.

As for `CC1CCN(S(=O)(=O)c2ccc(S(=O)(=O)N3CCCC3)cc2)CC1` [Compound 72], the EC50 was 8.91 µM. For the same compound, where the note is “48 h”, the activation at 0.307 µM was 0.91%, the activation at 1.53 µM was -2.48%, the activation at 7.66 µM stood at 54.5% and the activation at 38.3 µM is 132%. Moreover, the Emax under setting [1] was 136%. For the same compound, where the note is “read-out: Max Response [%]”, the Emax was found to be 132%.

As to `NC(=O)c1cccnc1Oc1ccc(Cl)cc1Cl` [Compound 113], the EC50 is 10 µM. Further, for the setting “48 h”, the activation at 0.307 µM is -4.94%, the activation at 1.53 µM is -7.73%, the activation at 7.66 µM came to 23.5% and the activation at 38.3 µM is 105%. The Emax under setting [1] is 106%. The Emax (read-out: Max Response [%]) stood at 105%.

As for `COc1nccc(NCc2ccccc2)c1C#N` [Compound 169], the EC50 was 10 µM. Besides, for the setting “48 h”, the activation at 0.307 µM is -18.2%, the activation at 1.53 µM is -21.6%, the activation at 7.66 µM stood at 0.301% and the activation at 38.3 µM came out at 64.3%. For the same compound, the Emax under setting [1] is 64.8%. Also, the Emax (read-out: Max Response [%]) was 64.3%.

Take `CCOc1ccc(NC(=O)CN2C(=O)NC(CCSC)C2=O)cc1` (stereo not shown) [Compound 180]: the EC50 was 10 µM. Further, for the setting “48 h”, the activation at 0.307 µM turned out to be 0%, the activation at 1.53 µM is -2.4%, the activation at 7.66 µM was 21.3% and the activation at 38.3 µM came to 75.1%. Further, the Emax under setting [1] amounted to 76.1%. Further, the Emax (read-out: Max Response [%]) stood at 75.1%.

For the compound `COc1ccccc1OCC(=O)N/N=C1/C=C(C)CC1` [Compound 185], the EC50 was 10 µM. Moreover, where the note is “48 h”, the activation at 0.307 µM is -21.6%, the activation at 1.53 µM is -24%, the activation at 7.66 µM turned out to be 0% and the activation at 38.3 µM is 94.5%. Under setting [1], the Emax is 94.2%. Besides, the Emax (read-out: Max Response [%]) turned out to be 94.5%.

For `COc1ccc(C(=O)ONC(=N)c2cccc(C)c2)cc1OC` [Compound 78], the EC50 was 10 µM. Moreover, for the setting “48 h”, the activation at 0.307 µM came to 10.1%, the activation at 1.53 µM amounted to 15.5%, the activation at 7.66 µM came to 69.8% and the activation at 38.3 µM was 148%. Besides, the Emax under setting [1] came out at 163%. Moreover, the Emax (read-out: Max Response [%]) is 148%.

With `COCCN1C=C(C(=O)OC)C(c2ccccc2Cl)C(C(=O)OC)=C1` [Compound 123], where the note is “48 h”, the activation at 0.307 µM was 5.12%, the activation at 1.53 µM is 12.1%, the activation at 7.66 µM came out at 45.1% and the activation at 38.3 µM was 85.5%. Moreover, the Emax under setting [1] is 96.9%. The Emax (read-out: Max Response [%]) amounted to 85.5%.

On to `COc1ccccc1CNc1cc(C)ccn1` [Compound 31], for which the EC50 is 2.51 µM. Under “48 h”, the activation at 0.307 µM is -22.9%, the activation at 1.53 µM was -0.943%, the activation at 7.66 µM stood at 53.2% and the activation at 38.3 µM was 62.3%. Further, under setting [1], the Emax stood at 62.2%.

Turning to `Cc1ccc(CNc2ncnc(N)c2[N+](=O)[O-])cc1` [Compound 120], the EC50 was 10 µM. Where the note is “48 h”, the activation at 0.307 µM amounted to 17.8%, the activation at 1.53 µM was found to be 33.8%, the activation at 7.66 µM stood at 63.4% and the activation at 38.3 µM came to 97.4%. The Emax under setting [1] is 127%. Moreover, under “read-out: Max Response [%]”, the Emax came to 97.4%.

`CCOc1ccc2oc(C(=O)OCC(=O)NC(=O)NC)c(C)c2c1` [Compound 115]: the EC50 was 7.08 µM. For the same compound, for the setting “48 h”, the activation at 0.307 µM was -3.94%, the activation at 1.53 µM is 0%, the activation at 7.66 µM turned out to be 40.2% and the activation at 38.3 µM was determined as 77.6%. For the same compound, the Emax under setting [1] was 80.7%. For the setting “read-out: Max Response [%]”, the Emax came out at 77.6%.

In the case of `CCOC(=O)/C(C(=O)c1ccccc1)=C(\N)NCCO` [Compound 222], under “48 h”, the activation at 0.307 µM stood at 9.44%, the activation at 1.53 µM is 9.77%, the activation at 7.66 µM turned out to be 16.5% and the activation at 38.3 µM was 66.5%. Also, the Emax under setting [1] worked out at 66.8%. In addition, the Emax (read-out: Max Response [%]) amounted to 66.5%.

In the case of `CC(C)(CC(=O)O)CC(=O)N1CCCN(c2nccc(C(F)(F)F)n2)CC1` [Compound 56], the EC50 was 3.98 µM. Where the note is “48 h”, the activation at 0.307 µM is 24%, the activation at 1.53 µM stood at 38.1%, the activation at 7.66 µM was 86.7% and the activation at 38.3 µM amounted to 108%. The Emax under setting [1] worked out at 111%. Further, the Emax (read-out: Max Response [%]) was 108%.

Consider `CS(=O)(=O)N(Cc1ccc(C(=O)NC2CCCC2)cc1)c1ccccc1` [Compound 63], for which the EC50 is 10 µM. Moreover, for the setting “48 h”, the activation at 0.307 µM was -3.95%, the activation at 1.53 µM stood at 2.24%, the activation at 7.66 µM turned out to be 57.8% and the activation at 38.3 µM came out at 196%. In addition, the Emax under setting [1] was 199%. In addition, where the note is “read-out: Max Response [%]”, the Emax was 196%.

In the case of `COc1ccc(-c2c[nH]nc2-c2ccc(OC)cc2)cc1` [Compound 106], where the note is “48 h”, the activation at 0.307 µM was -0.495%, the activation at 1.53 µM was 9.02%, the activation at 7.66 µM is 40.4% and the activation at 38.3 µM came to 70.1%. Besides, under setting [1], the Emax was 79.2%. Moreover, the Emax (read-out: Max Response [%]) was found to be 70.1%.

In the case of `O=C(O)CCn1cc(/C=C2/NC(=S)N(c3ccccc3)C2=O)c(-c2ccccc2)n1` [Compound 65], the Score came out at 45 and the EC50 was 20 µM. In addition, for the setting “48 h”, the activation at 0.307 µM was determined as 8.21%, the activation at 1.53 µM was 2.59%, the activation at 7.66 µM worked out at 27.2% and the activation at 38.3 µM was 464%. For the same compound, the Emax under setting [1] was 501%. Further, the Emax (read-out: Max Response [%]) came to 464%.
